Experimental data: patent US20190022167A1, “METHODS AND COMPOSITIONS FOR THE PREVENTION AND TREATMENT OF DUCHENNE MUSCULAR DYSTROPHY” (priority 2016, published 2019)
Where no end group is shown, it is not given here. [ ]: non-standard residue; d: D form.

Columns and labels:
DBA/2J-mdx mice [1] = assay: Left ventricular mitochondrial respiration in permeabilized muscle fiber bundles (high-resolution respirometry, Oroboros Oxygraph) after 12 weeks of treatment; type: in vivo, mouse; details: 5 mg/kg daily subcutaneous for 12 weeks; for ADP, complex I-supported respiration: treated DMD mice
Protocol: (§1) Left ventricular mitochondrial H2O2 emission (measured by spectrofluorometry; Amplex UltraRed fluorophore) and respiration (measured by high-resolution respirometry; Oroboros Oxygraph) were assessed in permeabilized muscle fiber bundles (PmFB) from DBA/2J-mdx mice (DMD mice) that were about 4 weeks of age, DBA/2J wildtype mice (wt mice) that were about 4 weeks of age, DMD mice treated with daily subcutaneous injections of Phe-D-Arg-Phe-Lys-NH2 (5mg/kg) for 12 weeks (treated DMD mice), and DMD mice treated with daily subcutaneous injections of […] for 12 weeks (untreated DMD mice). H2O2 emission was measured in the presence of physiological ADP (25 μM). ADP is a suppressor of H2O2 emission during respiration and is affected by the phosphate-shuttling activity of mitochondrial creatine kinase (mtCK). The effect of mtCK was assessed by saturating creatine (Cr) in vitro.

[2] = tested on: subjects at risk of having DMD; assay: Prevention of DMD in humans (Example 2); type: in vivo, human; details: for Effect of combination with one or more additional therapeutic agents: compared to peptides or additional agents alone, expected; for Onset of DMD: daily 1%, 5% or 10% solution, predicted
From the text: Subjects at risk of having DMD receive daily administrations of 1%, 5% or 10% solution of aromatic-cationic peptide, such as 2′6′-Dmt-D-Arg-Phe-Lys-NH2, Phe-D-Arg-Phe-Lys-NH2, or D-Arg-2′6′-Dmt-Lys-Phe-NH2, or a pharmaceutically acceptable salt thereof, such as acetate, tartrate, hydrochloride salt, or trifluoroacetate salt, alone or in combination with one or more additional therapeutic agents for the treatment or prevention of DMD. Peptides and/or additional therapeutic agents selected from the group consisting of: corticosteroids, Oxandrolone, ACE inhibitors, P188 (Poloxamer 188), beta-blockers, diuretics, angiotensin receptor blockers (ARBs), idebenone, alendronate, calcium with vitamin D, albuterol, dantrolene, pentoxifylline, carnitine, Coenzyme Q10, creatine, fish oil, green tea extracts, Vitamin E, PTC-124 (PTC Therapeutics Inc., South Plainfield, N.J.), AVI-4658 phosphorodiamidate morpholino oligomer, azathioprine and cyclosporine, are administered orally, topically, systemically, intravenously, subcutaneously, intraperitoneally, or intramuscularly according to methods known in the art. Dosages of the one or more additional therapeutic agents will range between 0.1 mg/kg to 50 mg/kg. Subjects will be evaluated weekly for the presence and/or severity of signs and symptoms associated with DMD, including, but not limited to, e.g., progressive proximal weakness with onset in the legs and pelvis, hyperlordosis with wide-based gait, hypertrophy of weak muscles, pseudohypertrophy (enlargement of calf and deltoid muscles with fat and fibrotic tissue), reduced muscle contractility on electrical stimulation in advanced stages of the disease, delayed motor milestones, progressive inability to ambulate, heel cord contractures, paralysis, fatigue, skeletal deformities including scoliosis, muscle fiber deformities, cardiomyopathy, congestive heart failure or arrhythmia, muscular atrophy, and respiratory disorders.

[3] = tested on: subjects suspected of having or diagnosed as having DMD; assay: Treatment of DMD in humans (Example 1); type: in vivo, human; details: for Effect of combination with one or more additional therapeutic agents: compared to peptides or additional agents alone, expected; for Severity of symptoms associated with DMD: daily 1%, 5% or 10% solution, predicted
From the text: Subjects suspected of having or diagnosed as having DMD receive daily administrations of 1%, 5% or 10% solution of aromatic-cationic peptide, such as 2′6′-Dmt-D-Arg-Phe-Lys-NH2, Phe-D-Arg-Phe-Lys-NH2, or D-Arg-2′6′-Dmt-Lys-Phe-NH2, or a pharmaceutically acceptable salt thereof, such as acetate, tartrate, hydrochloride salt, or trifluoroacetate salt, alone or in combination with one or more additional therapeutic agents for the treatment or prevention of DMD. Peptides and/or additional therapeutic agents selected from the group consisting of: corticosteroids, Oxandrolone, ACE inhibitors, P188(Poloxamer 188), beta-blockers, diuretics, angiotensin receptor blockers (ARBs), idebenone, alendronate, calcium with vitamin D, albuterol, dantrolene, pentoxifylline, carnitine, Coenzyme Q10, creatine, fish oil, green tea extracts, Vitamin E, PTC-124 (PTC Therapeutics Inc., South Plainfield, N.J.), AVI-4658 phosphorodiamidate morpholino oligomer, azathioprine and cyclosporine, are administered orally, topically, systemically, intravenously, subcutaneously, intraperitoneally, or intramuscularly according to methods known in the art. Dosages of the one or more additional therapeutic agents will range between 0.1 mg/kg to 50 mg/kg. Subjects will be evaluated weekly for the presence and/or severity of signs and symptoms associated with DMD, including, but not limited to, e.g., progressive proximal weakness with onset in the legs and pelvis, hyperlordosis with wide-based gait, hypertrophy of weak muscles, pseudohypertrophy (enlargement of calf and deltoid muscles with fat and fibrotic tissue), reduced muscle contractility on electrical stimulation in advanced stages of the disease, delayed motor milestones, progressive inability to ambulate, heel cord contractures, paralysis, fatigue, skeletal deformities including scoliosis, muscle fiber deformities, cardiomyopathy, congestive heart failure or arrhythmia, muscular atrophy, and respiratory disorders. Treatments are maintained until such a time as one or more signs or symptoms of DMD are ameliorated or eliminated.

DBA/2J-mdx mice [4] = assay: Left ventricular mitochondrial H2O2 emission in permeabilized muscle fiber bundles (spectrofluorometry, Amplex UltraRed) after 12 weeks of treatment; type: in vivo, mouse; details: 5 mg/kg daily subcutaneous for 12 weeks
Protocol: as §1

[5] = tested on: several mammalian cell types; details: cited from earlier work

## F[dR]FK-NH2
DBA/2J-mdx mice [1]; +Cr or —Cr
  Respiration, treated vs untreated DMD mice: did not change respiration
DBA/2J-mdx mice [1]; +Cr
  ADP, complex I-supported respiration: 111.4+/−12.0 pmol•s^−1•mg wet wt^−1
DBA/2J-mdx mice [1]; —Cr
  ADP, complex I-supported respiration: 59.6+/−7.4 pmol•s^−1•mg wet wt^−
[2]
  Effect of combination with one or more additional therapeutic agents: synergistic effects
  Onset of DMD: delayed onset of DMD, or prevention of onset of DMD
[3]
  Effect of combination with one or more additional therapeutic agents: synergistic effects
  Severity of symptoms associated with DMD: reduced severity or elimination of symptoms associated with DMD
DBA/2J-mdx mice [4]
  mtCK-dependent ADP suppression of H2O2 emission, treated vs untreated DMD mice: improved
DBA/2J-mdx mice [4]; +Cr, 25 μM ADP, treated DMD mice
  ADP-suppression of Complex I-supported H2O2, % of emission at 0 μM ADP/O2 consumed: 12+/−1%
DBA/2J-mdx mice [4]; —Cr, 25 μM ADP, treated DMD mice
  ADP-suppression of Complex I-supported H2O2, % of 0 μM ADP/O2 consumed: 40+/−11%

## 2′6′-Dmt-D-Arg-Phe-Lys-NH2
[5]
  Penetration of the plasma membrane: readily penetrates the plasma membrane of several mammalian cell types in an energy-independent manner
[2]
  Effect of combination with one or more additional therapeutic agents: synergistic effects
  Onset of DMD: delayed onset of DMD, or prevention of onset of DMD
[3]
  Effect of combination with one or more additional therapeutic agents: synergistic effects
  Severity of symptoms associated with DMD: reduced severity or elimination of symptoms associated with DMD

## D-Arg-2′6′-Dmt-Lys-Phe-NH2
[2]
  Effect of combination with one or more additional therapeutic agents: synergistic effects
  Onset of DMD: delayed onset of DMD, or prevention of onset of DMD
[3]
  Effect of combination with one or more additional therapeutic agents: synergistic effects
  Severity of symptoms associated with DMD: reduced severity or elimination of symptoms associated with DMD
